From ChEMBL document CHEMBL1201862, “PubChem BioAssay data set” (2004)
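48-hour exposure; five concentrations; linearly interpolated endpoints. Abbreviation: GI50, concentration required for 50% inhibition of growth.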 The source made the active and inactive calls. No stated cut-off is given here; in the data, active = GI50 up to about 1.1 µM and inactive = higher.

Experiments:
Test in all cases: NCI anticancer screen, dose series, 48 h
SF-295 = tested on: SF-295
SR = tested on: SR
HOP-92 = tested on: HOP-92
OVCAR-4 = tested on: OVCAR-4
SN12C = tested on: SN12C
OVCAR-8 = tested on: OVCAR-8
786-0 = tested on: 786-0
A498 = tested on: A498
SF-268 = tested on: SF-268
NCI-H23 = tested on: NCI-H23
OVCAR-3 = tested on: OVCAR-3
EKVX = tested on: EKVX
SK-OV-3 = tested on: SK-OV-3
SK-MEL-2 = tested on: SK-MEL-2
K562 = tested on: K562
MOLT-4 = tested on: MOLT-4
HOP-62 = tested on: HOP-62
DU-145 = tested on: DU-145
PC-3 = tested on: PC-3
MDA-N = tested on: MDA-N

Measured: GI50

O=C(c1nc2ccc(Cl)cc2[nH]c1=O)C(O)c1cccc([N+](=O)[O-])c1 (stereo unspecified)
inactive: SF-295 > 100 µM | SR 85.7 µM | HOP-92 > 100 µM | OVCAR-4 > 100 µM | SN12C > 100 µM | OVCAR-8 > 100 µM | 786-0 > 100 µM | A498 > 100 µM | SF-268 33.3 µM | NCI-H23 > 100 µM | OVCAR-3 > 100 µM | EKVX > 100 µM | SK-OV-3 > 100 µM | SK-MEL-2 > 100 µM | K562 28.6 µM | MOLT-4 35.9 µM | HOP-62 > 100 µM

CCOC(=O)c1c(C)n(-c2ccc(C)cc2)c(=O)c2ccccc2c(=O)c2c(=O)ccc(=O)c1=2
inactive: HOP-92 16.2 µM | OVCAR-4 21.4 µM | SN12C 21.7 µM | OVCAR-8 16.2 µM | 786-0 31 µM | SF-268 19.8 µM | NCI-H23 15.5 µM | OVCAR-3 16.2 µM | EKVX 21.6 µM | DU-145 20 µM | SK-OV-3 27 µM | SK-MEL-2 27 µM | K562 15.2 µM | MOLT-4 2.87 µM | PC-3 17.1 µM | HOP-62 18.8 µM

CCOC(=O)c1c(N)sc2c1C(C(=O)OCC)CCC2 (stereo unspecified)
inactive: SR 66.7 µM | HOP-92 > 100 µM | SN12C > 100 µM | OVCAR-8 > 100 µM | 786-0 > 100 µM | A498 12.1 µM | NCI-H23 > 100 µM | MDA-N > 100 µM | EKVX 55.8 µM | SK-MEL-2 > 100 µM | K562 76.6 µM | MOLT-4 > 100 µM | PC-3 68.1 µM | HOP-62 > 100 µM

CCC(=O)CC(=O)CCC(=O)Nc1cc(C)ccc1C
inactive: SF-295 > 100 µM | SR > 100 µM | HOP-92 > 100 µM | SN12C > 100 µM | OVCAR-8 > 100 µM | 786-0 > 100 µM | A498 > 100 µM | SF-268 > 100 µM | NCI-H23 > 100 µM | OVCAR-3 > 100 µM | EKVX > 100 µM | SK-OV-3 > 100 µM | SK-MEL-2 > 100 µM | K562 > 100 µM | MOLT-4 > 100 µM

N=c1c2ccccc2nc2oc3ccc(Cl)cc3n12
inactive: SF-295 12.8 µM | SR 31.9 µM | OVCAR-4 2.77 µM | SN12C 9.46 µM | OVCAR-8 9.66 µM | 786-0 3.94 µM | SF-268 34.2 µM | NCI-H23 14.1 µM | OVCAR-3 13.9 µM | MDA-N 65.6 µM | EKVX 15.6 µM | SK-OV-3 13.1 µM | SK-MEL-2 20.6 µM | K562 9.2 µM | MOLT-4 35.3 µM | PC-3 33.1 µM | HOP-62 5.81 µM

FC(F)(F)c1ccc(Cc2nc3cc4ccccc4cc3[nH]2)cc1
inactive: SF-295 > 100 µM | HOP-92 2.11 µM | OVCAR-4 31.5 µM | SN12C > 100 µM | OVCAR-8 > 100 µM | 786-0 89.5 µM | A498 > 100 µM | SF-268 > 100 µM | NCI-H23 > 100 µM | OVCAR-3 57.4 µM | EKVX > 100 µM | DU-145 > 100 µM | SK-MEL-2 > 100 µM | K562 32.1 µM | PC-3 > 100 µM | HOP-62 > 100 µM

CC(C)=CCC/C(C)=C/CC/C(C)=C/[C@@H]1[C@@H](CO)[C@]1(C)CC/C=C(\C)CCC=C(C)C
inactive: SF-295 60.8 µM | SR 19.6 µM | HOP-92 16.6 µM | OVCAR-4 > 100 µM | SN12C 41.1 µM | OVCAR-8 17.1 µM | 786-0 18.4 µM | A498 > 100 µM | SF-268 19.4 µM | NCI-H23 32 µM | OVCAR-3 52.5 µM | EKVX 20.2 µM | DU-145 39.6 µM | SK-OV-3 > 100 µM | SK-MEL-2 43.8 µM | K562 31.3 µM | MOLT-4 28.9 µM | PC-3 23.9 µM | HOP-62 69.7 µM

O=C(N/C(=C\c1cc(Cl)ccc1Cl)c1nc2cc(Cl)ccc2[nH]1)c1ccccc1
inactive: SF-295 16.1 µM | SR 5.43 µM | HOP-92 11.6 µM | OVCAR-4 25.8 µM | SN12C 19.5 µM | OVCAR-8 16.1 µM | 786-0 24.8 µM | A498 21.4 µM | SF-268 13.8 µM | NCI-H23 13 µM | OVCAR-3 15.2 µM | EKVX 23 µM | SK-OV-3 21.5 µM | SK-MEL-2 13.7 µM | K562 15.5 µM | MOLT-4 8.04 µM | HOP-62 18 µM
